# Laboratory results: patent US20190142835A1, “INHIBITION OF AUTOPHAGY USING PHOSPHOLIPASE A2 INHIBITORS” (OREGON HEALTH & SCIENCE UNIVERSITY, priority 2017, published 2019)
# How the values were obtained:
# [1] = tested on: Atg5 deficient cells (Atg5−/−); test: Autophagy induction in Atg5 deficient MEFs; assay type: cell-based, mouse
# [2] = tested on: mouse embryo fibroblasts (MEFs) Atg5+/+; test: Autophagy induction (lipidation of LC3) in Atg5+/+ MEFs; assay type: cell-based
# [3] = tested on: ACHN xenografts; test: ACHN xenograft study; assay type: in vivo
# Protocol: 6-week old mice were utilized for human renal cell carcinoma xenografts. For both ACHN and SN12C cell lines 2×10^6 cells were diluted in 50 μl of PBS and 50 μl of Matrigel (BD Biosciences) and were injected subcutaneously into the right and left flank of each mouse. Tumors were monitored until they reached an average size of 50-80 mm3 (approximately 2 weeks), at which point treatments were begun. […] MK2206 (60 mg/kg/day) were administered by oral gavage 2-3 day/week. […] Tumors and mouse weights were measured twice weekly. At least 6-8 mice per treatment group were included. All mice were euthanized using CO2 inhalation followed by cervical dislocation per institutional guidelines at Oregon Health and Science University. Experiments were approved by the Institutional Animal Care and Use Committee at OHSU.
# Immunostaining was performed following deparaffinization and rehydration of slides. Antigen retrieval was performed in a pressure cooker using citrate buffer (pH 6.0) for 4 min. Nonspecific binding was blocked using Vector mouse IgG blocking serum 30 min at room temperature. Samples were incubated at room temperature with rabbit monoclonal antibodies pS6 (CST #5364) cleaved caspase 3 (CST#9661), and Ki67 (Dako#M7240).
# Slides were developed with Vector Immpress rabbit IgG (#MP7401) and Vector Immpress mouse IgG (#MP7400) for 30 min at room temperature. Chromogenic detection was performed using Vector Immpact DAB (#SK4105) for 3 min. Slides were counterstained with hematoxylin. A 3DHistech MIDI Scanner (Perkin Elmer) was used to capture whole slide digital images with a 20× objective. Images were converted to into MRXS files and computer graphic analysis was completed using inForm 1.4.0 Advanced Image Analysis Software (Perkin Elmer).
# Mouse tumor size was analyzed by 2-way ANOVA with time and drug as factors, using GraphPad Prism. Mouse weight during treatment was analyzed by repeated measures 2-way ANOVA, with time and drug as factors. A P value less than 0.05 was considered statistically significant. Immunohistochemistry: P-values were calculated using one-way ANOVA, with Bonferroni's multiple comparison test. * denotes P<0.05, ** denotes P<0.01, and *** denotes P<0.001 throughout this disclosure. Metabolite fold-changes were computed and visualized in Python script, using the openpyxl package (for importing Excel files) and the matplotlib package (for visualizing fold changes).
# [4] = tested on: ACHN cells; test: Lipid droplet staining (Bodipy 493/503), ACHN; assay type: cell-based, human; conditions: 24 hrs; p<0.001 vs control
# Protocol: Cells were grown on coverslips then treated with drug for 24 hours. Cells were fixed in 4% paraformaldehyde for 15 min, rinsed with PBS. Cells were washed with a 1% saponin solution for 15 min at room temperature then washed several times in PBS to remove detergent. Cells were then incubated in Bodipy (ThermoFisher #D3922) at a final concentration of 1 uM for 10 min. Bodipy was removed and slides were rinsed with PBS then air dried and mounted on slides using Dako mounting media with Dapi.
# [5] = tested on: SN12C cells; test: Apoptosis (Caspase 3/7-Glo), SN12C; assay type: cell-based, human; conditions: 72 h
# Protocol: Apoptosis was determined using Caspase 3/7-Glo assay kit (Promega) following the manufacturer's instructions. Briefly, 2000 cells per well were plated in 96 well plates and cultured for 72 h. […] Caspase 3/7 activity was measured using a luminometer. Luminescence values were normalized by cell numbers.
# [6] = tested on: patient-derived RCC organotypic cultures; test: Patient tumor ex vivo organotypic culture; assay type: cell-based, human; conditions: 24 hours
# Protocol: Tumor tissue samples were collected at the time of surgical removal for consented patients and transported in IMEM+FBS+PS. Tissue was sliced into thin sections using a surgical knife. Sections were cultured on an organotypic insert (EMD#PICMORG50) for 24 hours in IMEM+10% FBS+1% PS+50 ug/ml holo-transferrin with drug. A section of each tumor was immediately fixed in 10% buffered formalin to confirm tissue viability. After culture, treated tissue sections were fixed in 10% buffered formalin and embedded in paraffin. Paraffin embedded tumors were evaluated for morphology (H&E) and immunofluorescent signaling.
# H&E slides of formalin fixed, paraffin embedded tissue was used to assess morphological integrity of tumor samples. Once integrity was confirmed, immunofluorescent analysis was performed for p-S6 (1:500 CST), p-AKT (1:200 CST) and LC3B (1:250 CST). Four micron sections were cut, de-paraffinized and rehydrated. Antigen retrieval was performed using citrate for 4 min in a pressure cooker. Slides were blocked using 2.5% normal goat serum for 30 min then incubated in primary antibody for 1 hr followed by secondary antibody mouse anti-rabbit alexa 488 (1:1000) for 30 min. Slides were rinsed in PBS, air dried, and coverslipped using Dako mounting media with Dapi.
# [7] = tested on: PI3K, mTORC1 and mTORC2 signaling; test: Western blotting of PI3K-AKT-mTOR signaling; assay type: cell-based, human
# Protocol: Cells were plated in 6 well dishes and treated the following day with the indicated agents. Treatments were for 24 hours, after which cells were washed with ice cold PBS and lysed with RIPA buffer (Sigma). Phosphatase inhibitor cocktail set II and protease inhibitor cocktail set III (EMD Millipore) were added at the time of lysis. Lysates were centrifuged at 15,000 g×10 min at 4 degrees C. Protein concentrations were calculated based on a BCA assay (Thermo Scientific) generated standard curve. Proteins were resolved using the NuPAGE Novex Mini Gel system on 4% to 12% Bis-Tris Gels (Invitrogen). For western blotting, equal amounts of cell lysates (15-20 μg of protein) were resolved with SDSPAGE, and transferred to membranes. The membrane was probed with primary antibodies, washed, and then incubated with corresponding fluorescent secondary antibodies and washed. The fluorescent signal was captured using LI-COR (Lincoln, Nebr.) Odyssey Imaging System, and fluorescent intensity was quantified using the Odyssey software where indicated. The following antibodies were used for Western blots: p-S6 (S240/244), S6, LC3B, p-Akt(S473), p-Akt(T308), Akt, cleaved caspase3 (Cell Signaling Technologies). p-Stat3 (Y705), Stat3 and β-actin (AC15) (Abcam). Ki67 (Dako) and cleaved caspase3 (Cell Signaling Technologies) were used for immunohistochemistry. […] BX795 and GDC0941 were purchased from Sigma.
# [8] = tested on: ACHN cells; test: Transcriptomic analysis with gene set enrichment (GSEA); assay type: cell-based, human
# [9] = tested on: ACHN cells; test: Cellular respiration (XF96 Seahorse, ECAR and OCR); assay type: cell-based, human; conditions: XF-96 Extracellular Flux Analyzer
# Protocol: Oxygen consumption and extracellular acidification rates were carried out in a XF96 Seahorse Analyzer (Seahorse Bioscience, Billerica, Mass., USA). Cells were plated in the wells of 96-well plates (8×10^3 cells/well; XF96 plates, Seahorse Bioscience, North Billerica, Mass.) and incubated at 37° C. overnight. The next day, cells were treated with indicated drugs for 24 hours and then the medium was changed to XF Assay Medium and loaded with glucose, oligomycin, and 2-DG, respectively, as manufacture's recommendation.
smiles,measurement,setting,value
N#CCNC(=O)c1ccc(-c2ccnc(Nc3ccc(N4CCOCC4)cc3)n2)cc1 [CYT387],autophagy induction,[1],did not induce autophagy
same,autophagy as seen by the lipidation of LC3,[2],induce autophagy in a dose dependent manner
same,apoptosis (cleaved-caspase3) in tumors,[3]; ACHN xenograft tumors,minimal impact on apoptosis
same,antitumor effect of single agent,"[3]; ACHN, CYT387 50 mg/kg/day or MK2206 60 mg/kg/day oral gavage",exhibited antitumor effect
same,number of adipophilin-positive LDs in tumors,"[3]; treatment day 40, ACHN xenograft tumors, CYT387<MK2206<CYT387+MK2206, p=0.0046",significantly and incrementally increased
same,number of lipid droplets,[4],increase in the number of lipid droplets
same,size of lipid droplets,[4],increase in the size of lipid droplets
same,apoptosis (cleaved-caspase 3/7),[5],little or no effect on apoptosis
same,LCB expression and phosphorylated S6 levels,[6],significantly induced LCB expression while simultaneously reducing phosphorylated S6 levels
same,phosphorylation of ERK 1/2,[7],no effect on the phosphorylation of ERK 1/2
same,AKT T308 phosphorylation (readout for PI3K signaling),[7]; time-dependent,increase in AKT T308
same,expression of genes involved in glycolysis such as PFKB3 and HK2,[8],downregulated genes involved in glycolysis
same,ECAR,[9],significantly reduced the ECAR
